What was measured:
[1] = Particle size and ageing stability of perfluorooctyl bromide/lecithin emulsions (photosedimentation); format: physicochemical; details: 90% w/v emulsion of perfluorooctyl bromide
Method: 32 g of egg-yolk lecithin and a mixture of salts whose composition is shown in detail in Table I was dispersed with Ultra Turrax under nitrogen (24000 t/min, 10 min) in 393 mL of injectable water. Perfluorooctyl bromide (PFOB, Perflubron®) (375 mL) was added slowly to this dispersion under nitrogen. The mixture was dispersed for 10 mn at 30-40° C. The coarse emulsion obtained was passed under nitrogen through a microfluidizer (M110F). After 10 passes under a pressure of 12000 psi in the chambers cooled to 35° C., the emulsion was recovered, filled in flasks then sterilized at 121° C. for 15 mn. The ageing was monitored at 5,25 and 40° C. (Table II and FIG. 1) and the average size of the particles measured by photosedimentation.
32 g of egg-yolk lecithin and a mixture of salts of the above composition (Table I) was dispersed under nitrogen using an Ultra Turrax T50 (24000 t/min, 10 min) in 379 mL of injectable water at 30-40° C. F6H8E (14.3 mL) was slowly added to this dispersion, which was stirred for 2 min. Perfluorooctyl bromide (375 mL) was then slowly added. The whole was emulsified for 10 min at 24000 t/min at 30-40° C. The coarse emulsion obtained was run under nitrogen through the microfluidizer and after 10 passes (12000 psi, 35° C.) the emulsion was filled in vials, sterilized and stored at 5,25 and 40° C. (Table II and FIG. 1). […]
The same protocol described in the example of Reference A was used but for 16 g of egg-yolk lecithin. The aging was monitored at 40° C. (Table II and FIG. 4).
The protocol described in example 1 was used with 385 mL of water, 8.38 mL of F8H8E, 16 g of lecithin and 375 mL of perfluorooctyl bromide. After microfluidization, the emulsion was sterilized and stored at 40° C. (Table II and FIG. 4). EXAMPLE 5 […]
The same protocol described in example of reference A was used but for 8 g of egg-yolk lecithin. The aging was monitored at 40° C. (Table II and FIG. 6 ) and the average size of the particles was measured by photosedimentation.
The protocol described in example 1 was used with 382 mL of water, 4,19 mL of F8H8E, 8 g of lecithin and 375 mL of perfluorooctyl bromide. After microfluidization the emulsion was sterilized and stored at 40° C. (Table II and FIG. 6).

[2] = Facilitation of emulsification of perfluorooctyl bromide: fine particles versus number of microfluidizer passes; format: physicochemical; details: perfluorooctyl bromide/lecithin emulsion, fine particles d<0,12 μm (FIG. 9)
Method: The compounds used in the methods of the invention facilitate the formation of the emulsion and lead to emulsions with fine particle size after a reduced number of passes or a reduced amount of energy. When the compound F8H8E of the invention is added to perfluorooctyl bromide/lecithin emulsion, 30% of fine particles are obtained after 10 passes. By comparison, the reference emulsion without the compounds of the invention requires 20 passes to obtain the same percentage of fine particles (FIG. 9).
The protocol described in Example 1 was used. The average particle size was measured during microfluidization after 1, 2, 3, 4, 5, 7 and 10 passes. The percentage of fine particles (d<0,12 μm) and of coarse particle (d>0,6 μm) was evaluated.
The same protocol as for reference emulsion E was used but for the addition of (F8H8E) as described in example 2.

[3] = cited from earlier work

Row | particle size ([1]; 0.1% w/v EYP and an equimolar amount of F8H8E) | particle size ([1]; 0.2% w/v of EYP and an equimolar amount of F8H8E) | particle size ([1]; 1% w/v of EYP and 0.7% w/v of F8H8E (FIG. 6)) | particle size ([1]; 2% w/v of EYP and 1.4% w/v of F8H8E (FIG. 4)) | number of passes to obtain 30% of fine particles [2] | Structure (SMILES) | half retention time in liver (comparison value) [3]
1 | about 2.75 μm | about 1.5 μm | about 0.38 μm | about 0.23 μm | 10 passes | CCCCCCCCC=CC(F)(F)C(F)(F)C(F)(F)C(F)(F)C(F)(F)C(F)(F)C(F)(F)C(F)(F)F [Example F8H8E, C8F17CH═CHC8H17] | 
2 |  |  |  |  |  | FC(F)(F)C(F)(F)C(F)(F)N(C(F)(F)C(F)(F)C(F)(F)F)C(F)(F)C(F)(F)C(F)(F)F [perfluorotripropylamine] | 65 days

— patent US6528545B1, “Preparations comprising a fluorocarbon or highly fluorinated compound and a lipophilic/fluorophilic organic compound, and their uses” (priority 1991, dated 2003)
